Measurements: US8933089B2, “HIV inhibiting 5-amido substituted pyrimidines” (Janssen R & D Ireland, priority 2006, dated 2015)

Columns and labels:
Type in all cases: cell-based, HIV-1
[1] = tested on: HIV strain IIIB (wild type); test: Cellular anti-HIV assay in MT4 LTR-EGFP cells, strain IIIB (wild type); selectivity index versus cytotoxicity in mock-infected MT4 CMV-EGFP cells; conditions: for EC50: Human immunodeficiency virus 1, 72 h, wild type HIV strain IIIB, MT4 LTR-EGFP cells, fluorescence, three days after infection, read-out: IIIB pEC50 (converted); for IIIB pSi: selectivity index = ratio of CC50 (mock-infected MT4 CMV-EGFP cells) to EC50 (IIIB), given as p value
Procedure: (§1) The antiviral activity of the compound of the present invention has been evaluated in the presence of wild type HIV and HIV mutants bearing mutations at the reverse transcriptase gene. The activity of the compounds is evaluated using a cellular assay which was performed according to the following procedure.
(§2) The human T-cell line MT4 is engineered with Green Fluorescent Protein (GFP) and an HIV-specific promoter, HIV-1 long terminal repeat (LTR). This cell line is designated MT4 LTR-EGFP, and can be used for the in vitro evaluation of anti-HIV activity of investigational compounds. In HIV-1 infected cells, the Tat protein is produced which upregulates the LTR promotor and finally leads to stimulation of the GFP reporter production, allowing to measure ongoing HIV-infection fluorometrically. Analogously, MT4 cells are engineered with GFP and the constitutional cytomegalovirus (CMV) promotor. This cell line is designated MT4 CMV-EGFP, and can be used for the in vitro evaluation of cytotoxicity of investigational compounds. In this cell line, GFP levels are comparably to those of infected MT4 LTR-EGFP cells. Cytotoxic investigational compounds reduce GFP levels of mock-infected MT4 CMV-EGFP cells.
(§3) Effective concentration values such as 50% effective concentration (EC50) can be determined and are usually expressed in μM. An EC50 value is defined as the concentration of test compound that reduces the fluorescence of HIV-infected cells by 50%. The 50% cytotoxic concentration (CC50 in μM) is defined as the concentration of test compound that reduces fluorescence of the mock-infected cells by 50%. The ratio of CC50 to EC50 is defined as the selectivity index (SI) and is an indication of the selectivity of the anti-HIV activity of the inhibitor. The ultimate monitoring of HIV-1 infection and cytotoxicity is done using a scanning microscope. Image analysis allows very sensitive detection of viral infection. Measurements are done before cell necrosis, which usually takes place about five days after infection, in particular measurements are performed three days after infection.
(§4) The columns IIIB, L100I, etc. in the table list the pEC50 values against various strains IIIB, L100I, etc.
Strain IIIB is wild type HIV strain

[2] = tested on: HIV strain L100I; test: Cellular anti-HIV assay in MT4 LTR-EGFP cells, mutant L100I; conditions: Human immunodeficiency virus 1, read-out: L100I pEC50 (converted)
Procedure: (§5) Because of the increasing emergence of drug resistant HIV strains, the present compounds were tested for their potency against clinically isolated HIV strains harbouring several mutations. These mutations are associated with resistance to reverse transcriptase inhibitors and result in viruses that show various degrees of phenotypic cross-resistance to the currently commercially available drugs such as for instance AZT and delavirdine.
as §1, §2, §3, §4

[3] = tested on: HIV strain L100I + K103N; test: Cellular anti-HIV assay in MT4 LTR-EGFP cells, mutant L100I + K103N; conditions: Human immunodeficiency virus 1, 72 h, read-out: L100I + K103N pEC50 (converted)
Procedure: as §5, §1, §2, §3, §4

[4] = tested on: HIV strain K103N; test: Cellular anti-HIV assay in MT4 LTR-EGFP cells, mutant K103N; conditions: Human immunodeficiency virus 1, read-out: K103N pEC50 (converted)
Procedure: as §5, §1, §2, §3, §4

[5] = tested on: HIV strain K103N + Y181C; test: Cellular anti-HIV assay in MT4 LTR-EGFP cells, mutant K103N + Y181C; conditions: Human immunodeficiency virus 1, 72 h, read-out: K103N + Y181C pEC50 (converted)
Procedure: as §5, §1, §2, §3, §4

[6] = tested on: HIV strain Y181C; test: Cellular anti-HIV assay in MT4 LTR-EGFP cells, mutant Y181C; conditions: Human immunodeficiency virus 1, read-out: Y181C pEC50 (converted)
Procedure: as §5, §1, §2, §3, §4

[7] = tested on: HIV strain Y188L; test: Cellular anti-HIV assay in MT4 LTR-EGFP cells, mutant Y188L; conditions: Human immunodeficiency virus 1, read-out: Y188L pEC50 (converted)
Procedure: as §5, §1, §2, §3, §4

[8] = tested on: HIV strain MDR; test: Cellular anti-HIV assay in MT4 LTR-EGFP cells, MDR strain; conditions: Human immunodeficiency virus 1, read-out: MDR pEC50 (converted)
Procedure: as §5, §1, §2, §3, §4
MDR refers to a strain that contains mutations L100I, K103N, Y181C, E138G, V1791, L2214F, V278V/I and A327A/V in HIV reverse transcriptase.

SMILES	EC50 [1] [nM]	IIIB pSi [1]	EC50 [2] [nM]	EC50 [3] [nM]	EC50 [4] [nM]	EC50 [5] [nM]	EC50 [6] [nM]	EC50 [7] [nM]	EC50 [8] [nM]
Cc1cc(/C=C/C#N)cc(C)c1Nc1nc(Nc2ccc(C#N)cc2)ncc1C(=O)NCc1cccc(Cl)c1 [Compound 25]	12.6	3.00	25.1	39.8	15.8	31.6	79.4	50.1	10000
Cc1cc(/C=C/C#N)cc(C)c1Nc1nc(Nc2ccc(C#N)cc2)ncc1C(=O)NCc1ccc(F)cc1 [Compound 26]	12.6	3.00	25.1	316	12.6	39.8	50.1	79.4	5010
Cc1cc(/C=C/C#N)cc(C)c1Nc1nc(Nc2ccc(C#N)cc2)ncc1C(=O)NCc1cccc(Br)c1 [Compound 29]	15.8	3.00	79.4	126	20	100	79.4	158	10000
Cc1cc(/C=C/C#N)cc(C)c1Nc1nc(Nc2ccc(C#N)cc2)ncc1C(=O)NCc1ccc(N(C)C)cc1 [Compound 30]	12.6	>3.30	100	251	15.8	100	100	316	5010
CC(=O)NCCNC(=O)c1cnc(Nc2ccc(C#N)cc2)nc1Nc1c(C)cc(/C=C/C#N)cc1C [Compound 33]	15.8	>3.20	15.8	15.8	15.8	12.6	50.1	63.1	398
Cc1cc(/C=C/C#N)cc(C)c1Nc1nc(Nc2ccc(C#N)cc2)ncc1C(=O)NCc1ccc(Br)cc1 [Compound 36]	25.1	>3.00	126	794	25.1	126	126	398	10000
Cc1cc(/C=C/C#N)cc(C)c1Nc1nc(Nc2ccc(C#N)cc2)ncc1C(=O)NC1CC1 [Compound 37]	2.51	3.60	5.01	20	1.58	7.94	12.6	12.6	1000
Cc1cc(/C=C/C#N)cc(C)c1Nc1nc(Nc2ccc(C#N)cc2)ncc1C(=O)NCCCN1CCCC1 [Compound 38]	0.794	3.70	25.1	63.1	1	15.8	20	25.1	2000
Cc1cc(/C=C/C#N)cc(C)c1Nc1nc(Nc2ccc(C#N)cc2)ncc1C(=O)NCC1CC1 [Compound 41]	5.01	>3.70	7.94	50.1	3.98	20	15.8	79.4	1580
Cc1cc(/C=C/C#N)cc(C)c1Nc1nc(Nc2ccc(C#N)cc2)ncc1C(=O)NCCCN(C)C [Compound 43]	12.6	>3.30	50.1	126	10	79.4	25.1	79.4	3160
Cc1cc(/C=C/C#N)cc(C)c1Nc1nc(Nc2ccc(C#N)cc2)ncc1C(=O)NCCc1ccccn1 [Compound 44]	2	>4.10	12.6	31.6	2.51	10	10	7.94	1260
Cc1cc(/C=C/C#N)cc(C)c1Nc1nc(Nc2ccc(C#N)cc2)ncc1C(=O)NCCc1ccc(S(N)(=O)=O)cc1 [Compound 47]	20	3.10	63.1	126	25.1	126	50.1	100	501
Cc1cc(/C=C/C#N)cc(C)c1Nc1nc(Nc2ccc(C#N)cc2)ncc1C(=O)NCCc1cccs1 [Compound 48]	20	3.10	126	501	20	200	126	316	10000
Cc1cc(/C=C/C#N)cc(C)c1Nc1nc(Nc2ccc(C#N)cc2)ncc1C(=O)NCCCO [Compound 49]	15.8	3.00	20	63.1	15.8	50.1	79.4	79.4	501
Cc1cc(/C=C/C#N)cc(C)c1Nc1nc(Nc2ccc(C#N)cc2)ncc1C(=O)NCCN1CCCC1 [Compound 51]	3.98	3.00	79.4	126	6.31	63.1	63.1	100	2510
Cc1cc(/C=C/C#N)cc(C)c1Oc1nc(Nc2ccc(C#N)cc2)ncc1C(=O)NCC1CCCO1 (stereo not drawn) [Compound 59]	2.51	3.80	63.1	251	6.31	79.4	31.6	251	3980
